Laboratory results from ChEMBL document CHEMBL1201862, “PubChem BioAssay data set” (2004).
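Briefly, cells in 96-well plates were exposed to five compound concentrations for 48 h, and endpoints were estimated by linear interpolation. GI50: concentration for 50% inhibition of growth.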 The source made the active and inactive calls. Cut-off read from the data, not from the text of the source: active = GI50 up to about 1.1 µM and inactive = higher.

Key:
Test in all cases: growth of human tumour cells (NCI), 48 h
PC-3 = tested on: PC-3
MCF7 = tested on: MCF7
SK-MEL-5 = tested on: SK-MEL-5
U-251 = tested on: U-251
RPMI-8226 = tested on: RPMI-8226
IGROV-1 = tested on: IGROV-1
MDA-N = tested on: MDA-N
HCC 2998 = tested on: HCC 2998
CCRF-CEM = tested on: CCRF-CEM
MOLT-4 = tested on: MOLT-4
OVCAR-4 = tested on: OVCAR-4
COLO 205 = tested on: COLO 205
SF-539 = tested on: SF-539
HCT-15 = tested on: HCT-15
K562 = tested on: K562
MDA-MB-435 = tested on: MDA-MB-435
OVCAR-8 = tested on: OVCAR-8
SK-OV-3 = tested on: SK-OV-3
786-0 = tested on: 786-0
Malme-3M = tested on: Malme-3M

SMILES | GI50 (PC-3) | GI50 (MCF7) | GI50 (SK-MEL-5) | GI50 (U-251) | GI50 (RPMI-8226) | GI50 (IGROV-1) | GI50 (MDA-N) | GI50 (HCC 2998) | GI50 (CCRF-CEM) | GI50 (MOLT-4) | GI50 (OVCAR-4) | GI50 (COLO 205) | GI50 (SF-539) | GI50 (HCT-15) [µM] | GI50 (K562) | GI50 (MDA-MB-435) | GI50 (OVCAR-8) | GI50 (SK-OV-3) | GI50 (786-0) | GI50 (Malme-3M)
Cc1nc2c(nc1C)C(=O)c1ccccc1C2=O | 3.24 µM (inactive) | 1.36 µM (inactive) | 0.188 µM (active) | 6.55 µM (inactive) | 11.1 µM (inactive) | 7.96 µM (inactive) | 0.245 µM (active) | 6.58 µM (inactive) | 8.55 µM (inactive) | 11.8 µM (inactive) | 5.36 µM (inactive) | 2.78 µM (inactive) | 4.6 µM (inactive) | 2.58 | 7.67 µM (inactive) | 0.204 µM (active) | 7.53 µM (inactive) | 34.5 µM (inactive) | 8.38 µM (inactive) | 0.237 µM (active)
CN(C)c1ccc(/C=C/c2ccnc3ccccc23)cc1 | > 100 µM (inactive) | 90.2 µM (inactive) | 75.9 µM (inactive) | 84.7 µM (inactive) | 51.1 µM (inactive) | > 100 µM (inactive) | 17.7 µM (inactive) | > 100 µM (inactive) | 49.5 µM (inactive) | – | 55.6 µM (inactive) | 28.8 µM (inactive) | > 100 µM (inactive) | 61.1 | 33.5 µM (inactive) | 23.1 µM (inactive) | – | 54.5 µM (inactive) | 89.7 µM (inactive) | 53.2 µM (inactive)
N#CN1C2CCC1CC(=O)C2 | > 100 µM (inactive) | > 100 µM (inactive) | > 100 µM (inactive) | > 100 µM (inactive) | > 100 µM (inactive) | > 100 µM (inactive) | > 100 µM (inactive) | > 100 µM (inactive) | > 100 µM (inactive) | > 100 µM (inactive) | > 100 µM (inactive) | > 100 µM (inactive) | > 100 µM (inactive) | > 100 | > 100 µM (inactive) | > 100 µM (inactive) | > 100 µM (inactive) | > 100 µM (inactive) | > 100 µM (inactive) | > 100 µM (inactive)
CN(C)CCC(=O)N1C/C(=C\c2ccc(Cl)c(Cl)c2)C(=O)/C(=C/c2ccc(Cl)c(Cl)c2)C1 | 0.102 µM (active) | 0.14 µM (active) | 0.453 µM (active) | 0.149 µM (active) | 0.074 µM (active) | 0.434 µM (active) | 0.213 µM (active) | 0.321 µM (active) | 0.0269 µM (active) | 0.19 µM (active) | 0.245 µM (active) | 0.223 µM (active) | 0.274 µM (active) | 0.184 | 0.038 µM (active) | 0.347 µM (active) | 0.265 µM (active) | 1.86 µM (inactive) | 0.125 µM (active) | 0.64 µM (active)
CCN(CC)CCCNc1nncc2c(C)c3[nH]c4ccc(OC)cc4c3cc12 | 0.358 µM (active) | 0.0975 µM (active) | 0.935 µM (active) | 0.304 µM (active) | 0.724 µM (active) | 0.356 µM (active) | 0.695 µM (active) | 0.65 µM (active) | 0.0535 µM (active) | 0.0173 µM (active) | 0.618 µM (active) | 1.03 µM (active) | 0.268 µM (active) | 10.3 | 0.14 µM (active) | 1.11 µM (active) | 0.182 µM (active) | 1.17 µM (inactive) | 0.222 µM (active) | 0.916 µM (active)
CCCOc1ccc(-c2nc(-c3ccc(/N=C/c4ccc(N(CCOS(C)(=O)=O)CCOS(C)(=O)=O)cc4C)cc3)cs2)cc1 | 18.5 µM (inactive) | 15.2 µM (inactive) | 27 µM (inactive) | 27.9 µM (inactive) | 61.1 µM (inactive) | 20 µM (inactive) | 28.7 µM (inactive) | 12 µM (inactive) | 2.58 µM (inactive) | 5.35 µM (inactive) | 34.1 µM (inactive) | 2.21 µM (inactive) | 12.1 µM (inactive) | 23.4 | 22.5 µM (inactive) | 33.8 µM (inactive) | 25.5 µM (inactive) | 5.93 µM (inactive) | 3.35 µM (inactive) | 44.4 µM (inactive)
Cc1ccc(C(=O)N(C2CCCCC2)C2CCCCC2)cc1/N=N/N(C)C | 10.4 µM (inactive) | 14.9 µM (inactive) | 14.3 µM (inactive) | 18.4 µM (inactive) | 8.75 µM (inactive) | 15.6 µM (inactive) | 15 µM (inactive) | 15.7 µM (inactive) | 14.9 µM (inactive) | 14.4 µM (inactive) | 10.4 µM (inactive) | 17.7 µM (inactive) | 19.5 µM (inactive) | 14.1 | 8.28 µM (inactive) | 16.2 µM (inactive) | 8.81 µM (inactive) | 17.8 µM (inactive) | 15.3 µM (inactive) | 16.2 µM (inactive)
COc1ccc([N+](=O)[O-])c2c(NCCCN(C)C)c3ccccc3nc12 | 0.0276 µM (active) | 0.0155 µM (active) | 0.106 µM (active) | 0.152 µM (active) | 0.218 µM (active) | 0.05 µM (active) | 0.425 µM (active) | < 0.0319 µM (active) | 0.546 µM (active) | 0.0326 µM (active) | 0.0354 µM (active) | 0.0953 µM (active) | 0.308 µM (active) | 0.0935 | 0.133 µM (active) | 0.306 µM (active) | 0.288 µM (active) | 0.33 µM (active) | 0.0778 µM (active) | 0.155 µM (active)
CC(=O)N(C(=O)CC(=O)NNCc1ccccc1Cl)c1ccc(Cl)cc1 | > 10 µM (inactive) | 5.97 µM (inactive) | > 10 µM (inactive) | > 10 µM (inactive) | > 10 µM (inactive) | > 10 µM (inactive) | > 10 µM (inactive) | > 10 µM (inactive) | > 10 µM (inactive) | > 10 µM (inactive) | > 10 µM (inactive) | > 10 µM (inactive) | > 10 µM (inactive) | > 10 | > 10 µM (inactive) | > 10 µM (inactive) | > 10 µM (inactive) | > 10 µM (inactive) | > 10 µM (inactive) | > 10 µM (inactive)
COc1cc(C2S/C(=C/c3ccccc3)C(=O)N2c2cc(Cl)ccc2Cl)cc(OC)c1OC (stereo unspecified) | 31.6 µM (inactive) | 27 µM (inactive) | 35.8 µM (inactive) | 35.7 µM (inactive) | 36.2 µM (inactive) | 18.9 µM (inactive) | 34.5 µM (inactive) | > 100 µM (inactive) | 35.2 µM (inactive) | 34.8 µM (inactive) | – | 55.3 µM (inactive) | 17.9 µM (inactive) | 38.3 | 47 µM (inactive) | 34.1 µM (inactive) | 36.3 µM (inactive) | > 100 µM (inactive) | 18.8 µM (inactive) | 32.8 µM (inactive)
O=C1CCc2cc3c(cc21)CC1(Cc2ccccc2C1)C3 | 14.2 µM (inactive) | 9.29 µM (inactive) | 5.77 µM (inactive) | 7.96 µM (inactive) | 6.27 µM (inactive) | 4.3 µM (inactive) | 2.16 µM (inactive) | 8.75 µM (inactive) | 2.98 µM (inactive) | 0.678 µM (active) | 50.1 µM (inactive) | 3.79 µM (inactive) | 9.12 µM (inactive) | 13.8 | 2.09 µM (inactive) | 2.58 µM (inactive) | 24.9 µM (inactive) | 14 µM (inactive) | 36.3 µM (inactive) | 16.8 µM (inactive)
O=c1c2c3c(sc2nc2n1N=CN(c1ccccc1)C2)CCCC3 | > 100 µM (inactive) | > 100 µM (inactive) | > 100 µM (inactive) | > 100 µM (inactive) | > 100 µM (inactive) | > 100 µM (inactive) | > 100 µM (inactive) | > 100 µM (inactive) | > 100 µM (inactive) | > 100 µM (inactive) | > 100 µM (inactive) | > 100 µM (inactive) | – | > 100 | > 100 µM (inactive) | > 100 µM (inactive) | > 100 µM (inactive) | > 100 µM (inactive) | > 100 µM (inactive) | > 100 µM (inactive)
CC(=O)OCC1=C2C(OC(=O)C(C)C)CC3(COC(C)=O)OC3/C=C\C3(C)OC3C2OC1=O (stereo unspecified) | > 100 µM (inactive) | > 100 µM (inactive) | > 100 µM (inactive) | > 100 µM (inactive) | > 100 µM (inactive) | > 100 µM (inactive) | > 100 µM (inactive) | > 100 µM (inactive) | 50.5 µM (inactive) | > 100 µM (inactive) | > 100 µM (inactive) | > 100 µM (inactive) | > 100 µM (inactive) | > 100 | > 100 µM (inactive) | > 100 µM (inactive) | > 100 µM (inactive) | > 100 µM (inactive) | > 100 µM (inactive) | > 100 µM (inactive)
Oc1cc(-c2ccccc2)nc2ncccc12 | 0.0681 µM (active) | 0.0372 µM (active) | 0.0778 µM (active) | 0.0927 µM (active) | 0.171 µM (active) | 0.2 µM (active) | 0.0129 µM (active) | 0.232 µM (active) | 0.0867 µM (active) | 0.0962 µM (active) | 15 µM (inactive) | 0.0855 µM (active) | 0.109 µM (active) | 0.0227 | 0.0336 µM (active) | 0.0133 µM (active) | 0.22 µM (active) | 0.126 µM (active) | 0.16 µM (active) | 0.091 µM (active)
